From patent US20050064470A1, “High throughput screening methods for identifying RNA binding compounds” (priority 2003, published 2005)

Experiments:
wild-type TAR RNA = assay: Fluorescence polarization anisotropy (FPA) binding to fluorescein-labeled wild-type TAR RNA; parameters: species or system HIV-1; settings: for Kd / specificity for wild-type TAR over bulgeless TAR (in words) / affinity for TAR RNA (in words): FPA; for Kd: 20 mM KCl, fluorescein-tagged wild-type TAR RNA, room temperature, read-out: Kd wt TAR; for specificity for wild-type TAR over bulgeless TAR (in words): wild-type vs bulge-deleted TAR; for Binding Specificity (Kd (mutTAR)/Kd (wtTAR)): ratio of Kd for bulge-deleted TAR to Kd for wild-type TAR, in text as fold decrease of affinity
Method: (§1) β-Peptide and mutant β-peptide binding affinities to TAR RNA were measured by fluorescence anisotropy method on a PTI (Photon Technology International) fluorescence spectrophotometer. A T-format setup based on two emission channels was used. The intensities of the parallel and perpendicular components simultaneously were obtained in one measurement using two separate detectors. The excitation side is a motorized Glan-Thompson polarizer and emission sides are two film polarizers placed in vertical and horizontal orientation, respectively. The anisotropy can be calculated from equation 1, [formula] • where III and I⊥ are fluorescence intensities observed when the emission polarizer is oriented parallel and perpendicular to the direction of the polarized excitation, respectively.
(§2) The fluorescein-labeled TAR RNA (F-TAR, either wt TAR or bulge-less TAR, see FIG. 1) was excited at 490 nm and two polarized emissions were monitored at 512 nm. The slits were set at 8 nm for both excitation and emission light. The integration time was 20 seconds. All data were measured in a Sub-Micro cuvette (Starna Cell, Inc.) with a starting volume of 160 μL. Each addition of β-peptide/mutant β-peptide was followed by one-minute equilibration before the fluorescence signal was recorded. All experiments were done at room temperature and in a TKT buffer (TKT: 50 mM Tris-HCl, pH=7.4, 20 mM KCl and 0.02% Tween20). The initial concentration of F-TAR was around 25 nM. The stock concentration of β-peptide/mutant β-peptide for titration was 2 μM. The experiment was repeated three times independently. For every single point, five measurements were made and their average anisotropy value was used for calculation of the KD.
(§3) The binding dissociation constant (KD) is determined by fitting the plot of anisotropy of F-TAR versus the concentration of the β-peptide using equation 3, [formula] • where A is the relative fluorescence anisotropy of dye-labeled TAR RNA. The capacity for binding, Cap, is the maximum binding ability of a small molecule. C is the total concentration of β-peptide added. a is a correction factor.

[1] = target: bulge-deleted (mut) TAR RNA; assay: Fluorescence polarization anisotropy (FPA) binding to fluorescein-labeled bulge-deleted TAR RNA; parameters: species or system HIV-1; settings: for Kd: FPA, 20 mM KCl, fluorescein-tagged bulge-deleted TAR RNA, room temperature
Method: as §1, §2, §3

Row | Substance | Kd (wild-type TAR RNA) [nM] | specificity for wild-type TAR over bulgeless TAR (in words) (wild-type TAR RNA) | Binding Specificity (Kd (mutTAR)/Kd (wtTAR)) (wild-type TAR RNA) | Kd [1] [nM] | affinity for TAR RNA (in words) (wild-type TAR RNA) | affinity for wild-type TAR lower than that of α-peptide 3 (wild-type TAR RNA; compared to α-peptide 3) | Binding Specificity (Kd (mutTAR)/Kd (wtTAR)) (wild-type TAR RNA; listed as β-peptide 1) | dissociation constant ratio (Krel) relative to α-peptide 3 (wild-type TAR RNA; value above 1.0 denotes stronger binding of the analogue relative to the native peptide) | affinity for bulgeless TAR reduced compared to α-peptide 3 ([1]; compared to α-peptide 3)
1 | N-Tyr-Gly-Arg-Lys-Lys-Arg-Arg-Gln-Arg-Arg-Arg [α-TatR 3, reference compound] | 1.8 ± 0.5 | little specificity | 1 | 1.1 ± 0.2 |  |  |  |  | 
2 | β-amino acid oligomer (β-peptide) analogue of Tat 47-57 (YGRKKRRQRRR, SEQ ID NO:1) [wt β-peptide 1] | 28 ± 4 | enhanced specificity | 10 | 281 ± 68 | nanomolar affinity | roughly 15 fold | about 10 | 0.072 | more than two orders of magnitude
3 | β-peptide in which all arginine side chains have been replaced by lysine side chains (YGKKKKKQKKK; SEQ ID NO:2) [mut β-peptide 2] | 16 ± 2 | less specificity | 2 | 33 ± 2 | high affinity |  |  |  | 
